Results reported in patent US20210371379A1, “NOVEL SALT OF 4-({(4S)-1-(4-CARBAMIMIDOYLBENZOYL)-4-[4(METHYLSULFONYL)PIPERAZIN-1-YL]-L-PROLYL}AMINO) BENZOIC ACID AND NOVEL CRYSTAL FORM THEREOF” (ONO PHARMACEUTICAL CO., LTD., priority 2018, published 2021).

Tests used:
Assay type in all cases: physicochemical
[1] = Hygroscopicity evaluation (isotherm adsorption curve); conditions: 25° C., relative humidity in the range of 5% to 70%
Protocol: The isotherm adsorption curve was measured under the following conditions. Ditosylate, monoacetate and pentahydrate of Compound A were measured under Condition 1, and besylate of […] was measured under Condition 2.
Measurement temperature: 25° C.
Measurement range: Relative humidity of 5 to 95%
Measurement interval: Relative humidity of 5%
Measurement range: Relative humidity of 0 to 95%

[2] = Chemical stability test: residual rate measurement by HPLC after storage; conditions: for Residual rate (%): versus sample stored at −20° C.
Protocol: The chemical stability of crystals of ditosylate, dibesylate, pentahydrate and monoacetate of Compound A was measured by the following method and conditions.
About 1.5 to 3 mg of a test compound was weighed in a lab tube and stored under the following conditions.
After storage, the residual rate (%) of the stored sample under each condition was calculated by HPLC based on the area percentage of main medicine of the sample stored at −20° C. In addition, appearance was visually observed and compared with the sample stored at −20° C. […]
Comparison object of each sample was stored at −20° C.
An evaluation sample (0.8 mg) was dissolved in a mixed solution of acetonitrile/100 mM NaClO4 […] about 0.8 mL (sample concentration: 1.0 mg/mL) acetonitrile/100 mmol/L NaClO4 aq. (pH3.0) (3/1) to prepare a solution of 1.0 mg/mL (concentration as salt).
Detector: Ultraviolet absorptiometer (measurement wavelength: 265 nm)
Column: SPELCO Ascentis Express (150 mm×4.6 mm, S-2.7 μm)
Column temperature: 25° C.
Mobile phase: Solution A: 100 mmol/L NaClO4 aq. (pH 3.0), Solution B: acetonitrile
Area measurement range: 34.6 minutes

[3] = Physical stability: powder X-ray measurement before and after storage; conditions: 25° C.-60% RH, 2 months
Protocol: The physical stability of monoacetate and ditosylate of Compound A was measured by the following method and conditions.
Test compounds were respectively weighed in a lab tube at about 20 mg for monoacetate and about 40 mg for ditosylate, and stored under the following conditions.
Device: D8 DISCOVER with GADDS manufactured by BRUKER axs

[4] = crystals stored at 40° C.-75% RH (opened) for 2 months
[5] = crystals stored at 60° C. for 1 month
[6] = crystals stored at 40° C. for 2 months

| weight gain [1] [wt %] | Residual rate (%) [2, 4] [%] | Residual rate (%) [2, 5] [%] | Residual rate (%) [2, 6] [%] | weight gain ([1]; listed as monoacetate of Compound A, monoacetate) [wt %] | Residual rate (%) ([2]; crystals stored at 40° C. for 2 months, monoacetate) | Residual rate (%) ([2]; crystals stored at 40° C.-75% RH (opened) for 2 months, monoacetate) | Residual rate (%) ([2]; crystals stored at 60° C. for 1 month, monoacetate) | weight gain ([1]; listed as pentahydrate of Compound A) [wt %] | residual rate ([2]; under the conditions of 40° C.-75%) | SMILES | change of powder X-ray diffraction spectrum before and after storage [3] |
| --- | --- | --- | --- | --- | --- | --- | --- | --- | --- | --- | --- |
| 1.9 | 99.5 | 100 | – | – | – | – | – | – | – | CS(=O)(=O)N1CCN([C@H]2C[C@@H](C(=O)Nc3ccc(C(=O)O)cc3)N(C(=O)c3ccc(C(=N)N)cc3)C2)CC1.O=S(=O)(O)c1ccccc1 [Dibesylate, 4-({(4S)-1-(4-Carbamimidoylbenzoyl)-4-[4-(methylsulfonyl)piperazin-1-yl]-L-prolyl}amino) benzoic acid dibenzenesulfonate] | – |
| 1.5 | 99.3 | 100 | 100 | – | – | – | – | – | – | CS(=O)(=O)N1CCN([C@H]2C[C@@H](C(=O)Nc3ccc(C(=O)O)cc3)N(C(=O)c3ccc(C(=N)N)cc3)C2)CC1.Cc1ccc(S(=O)(=O)O)cc1 [Ditosylate, 4-({(4S)-1-(4-Carbamimidoylbenzoyl)-4-[4-(methylsulfonyl)piperazin-1-yl]-L-prolyl}amino) benzoic acid di(4-toluenesulfonate)] | no significant peak change was recognized |
| – | – | – | – | 6.4 | 99 | 95 | 97.5 | – | – | CS(=O)(=O)N1CCN([C@H]2C[C@@H](C(=O)Nc3ccc(C(=O)O)cc3)N(C(=O)c3ccc(C(=N)N)cc3)C2)CC1 [Monoacetate, 4-({(4S)-1-(4-Carbamimidoylbenzoyl)-4-[4-(methylsulfonyl)piperazin-1-yl]-L-prolyl}amino) benzoic acid monoacetate] | change in the spectra was recognized |
| – | 37 | 23.1 | 36.3 | – | – | – | – | 12.2 | reduced residual rate | CS(=O)(=O)N1CCN([C@H]2C[C@@H](C(=O)Nc3ccc(C(=O)O)cc3)N(C(=O)c3ccc(C(=N)N)cc3)C2)CC1 [Pentahydrate, 4-({(4S)-1-(4-Carbamimidoylbenzoyl)-4-[4-(methylsulfonyl)piperazin-1-yl]-L-prolyl}amino) benzoic acid pentahydrate] | – |
